Laboratory results from patent publication US20240043435A1, “TYK-2 INHIBITOR” (BEIGENE, LTD., priority 2020, published 2024).
Where two headings read alike, the source gives them in different places.

How the values were obtained:
[1] = target: T1, TYK2-JH2 (aa 575-869, in-house) protein (Homo sapiens, UniProt P29597); experiment: TYK2-JH2 biochemical assay (HTRF probe displacement); type: binding; details: for IC50: Biochemical assay, read-out: TYK2-JH2 IC50
T1 construct: TYK2-JH2 (aa 575-869, in-house) protein; made in house
T1 sequence (P29597 575-869): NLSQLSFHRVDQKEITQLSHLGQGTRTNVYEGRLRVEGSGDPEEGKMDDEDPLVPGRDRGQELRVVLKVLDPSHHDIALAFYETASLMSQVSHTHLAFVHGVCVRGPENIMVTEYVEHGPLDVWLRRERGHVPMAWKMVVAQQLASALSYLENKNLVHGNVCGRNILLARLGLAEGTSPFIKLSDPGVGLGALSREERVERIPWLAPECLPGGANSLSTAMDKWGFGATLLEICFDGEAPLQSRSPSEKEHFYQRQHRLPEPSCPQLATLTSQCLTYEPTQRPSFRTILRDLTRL
How it was run: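 HTRF probe-displacement format: compound dilutions (10 points, 5-fold, from 500 uM in DMSO at 500×) were combined with 0.2 nM TYK2-JH2 protein for 0.5 h at room temperature in HEPES pH 7.5 buffer with MgCl2, BSA, DTT and Brij-35. Percent inhibition came from the 615/665 nm fluorescence ratio, fitted to a four-parameter logistic for IC50.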

[2] = test system: JAK2, TYK2/p-STAT4 (Tyr693) activated by IL-12 in NK-92 cell line; experiment: IL-12-JAK2, TYK2/p-STAT4 (Tyr693) inhibition IC50 cellular assay; type: cell-based; details: for IC50: read-out: pSTAT4/IL-12 IC50; for Selectivity fold (TYK2/JAK2): pSTAT5/GM-CSF IC50 vs pSTAT4/IL-12 IC50
Description: Assay C: IL-12-JAK2, TYK2/p-STAT4 (Tyr693) Inhibition IC50 Cellular Assay
To evaluate the inhibition effect of compounds disclosed herein on JAK2, TYK2/p-STAT4 (Tyr693) activated by IL-12 in NK-92 cell line, NK-92 cells were collected and washed 3 times by DPBS and resuspended in MEM-α (GIBCO, Cat #12561056) with 10% FBS (Gibco, Cat #10099, Lot #1891605), without IL-2 (R&D systems, Cat #202-IL), starved overnight. Cells were collected and resuspended in 1640 medium (phenol red free, Gibco, Cat #11835-030) with 0.1% BSA, and 12.5 μl/5×10^4/well cell suspension were seeded to the 96-well plate (Corning, Cat #3799). Then cells were treated with compounds diluted in 0.2% DMSO 1640 medium, at 37° C., 1 h. Dilution is done according to the following protocol: (1) make 500× compounds solution in DMSO from 5 mM by 4-fold dilution, total 8 doses were included; (3) make 2× compounds solution in assay medium by transferring 0.5 μl serial 500× stock solution into 125 μl assay medium; (4) 15 μl of 2× serial solution is added to cells and incubate at 37° C. for 1 h, the final compound conc. is 10000, 2500, 625, 156.25, 39, 9.8, 2.4 and 0.61 nM, respectively. After 1 h, cells were treated with 2.5 μl medium containing IL-12 at 37° C. (R&D systems, Cat #219-IL-005, final conc. 40 ng/ml), 30 min. Following cells were lysed with 7.5 μl lysis buffer at RT, shaking on shaker for 1 h. 10 μL of cell lysate were transferred to a PE 384-well Proxiplate detection plate, and 5 μL of pre-mixed Alphascreen beads were added to each well. Covered the plate with a plate sealer, span 1000 rpm for 1 min, mix, Incubated overnight at room temperature. Read on BMG PheraStar with Alphascreen protocol. IC 50 values were calculated by fitting dependent data to the four-parameter logistic model using dotmatics software. The assay was performed by using AlphaLISA SureFire Ultra p-STAT4 (Tyr693) Assay Kit—High Volume (PE, Cat #ALSU-PST4-A-HV).

pSTAT5/GM-CSF = pSTAT5/GM-CSF cellular assay (JAK2 selectivity); type: cell-based; details: for Selectivity fold (TYK2/JAK2): pSTAT5/GM-CSF IC50 over pSTAT4/IL-12 IC50

IC50 [1] [nM]	IC50 ([2]; NK92, Cellular assay) [nM]	IC50 (pSTAT5/GM-CSF) [µM]	IC50 ([2]; Cellular assay) [nM]	SMILES	Selectivity fold (TYK2/JAK2) (pSTAT5/GM-CSF) [fold]	Selectivity fold (TYK2/JAK2) ([2]; Cellular assay) [fold]	Kd ([1]; in-house probe of the TYK2-JH2 assay) [nM]
0.019	0.626	2.02		CC(=O)Nc1cc(Nc2cc(C3COCCO3)cc(S(C)(=O)=O)n2)c(-c2ccc3c(n2)OCC(C)(C)O3)cn1 (racemic) [Example Q50, (R/S)—N-(4-((4-(1,4-dioxan-2-yl)-6-(methylsulfonyl)pyridin-2-yl)amino)-5-(2,2-dimethyl-2,3-dihydro-[1,4]dioxino[2,3-b]pyridin-6-yl)pyridin-2-yl)acetamide]	3231		
0.034		> 10	0.979	CC(=O)Nc1cc(Nc2cc(C3COCCO3)cc(S(C)(=O)=O)n2)c(-c2ccc3c(n2)OCC(C)(C)O3)cn1 (racemic) [Example Q51, (S/R)—N-(4-((4-(1,4-dioxan-2-yl)-6-(methylsulfonyl)pyridin-2-yl)amino)-5-(2,2-dimethyl-2,3-dihydro-[1,4]dioxino[2,3-b]pyridin-6-yl)pyridin-2-yl)acetamide]	>10214		
0.035	2.53	> 10		CC(=O)Nc1cc(Nc2cccc(S(C)(=O)=O)n2)c(-c2c[nH]cn2)cn1 [Example A3, N-(5-(1H-imidazol-4-yl)-4-((6-(methylsulfonyl)pyridin-2-yl)amino)pyridin-2-yl)acetamide]		>3952	
0.041	1.33	> 10		CC(=O)Nc1cc(Nc2cc(C)cc(S(C)(=O)=O)n2)c(-c2ccco2)cn1 [Example A9, N-(5-(furan-2-yl)-4-((4-methyl-6-(methylsulfonyl)pyridin-2-yl)amino)pyridin-2-yl)acetamide]		>7518	
2.4	3000			CC(=O)Nc1cc(Nc2cccc(S(C)(=O)=O)c2)c(-c2ncn(C)n2)cn1 [Example A10, N-(5-(1-methyl-1H-1,2,4-triazol-3-yl)-4-((3-(methylsulfonyl)phenyl)amino)pyridin-2-yl)acetamide]			
0.063	41.7	> 10		COc1ccc(S(C)(=O)=O)nc1Nc1cc(NC(C)=O)ncc1-c1cnn(C)c1 [Example A11, N-(4-((3-methoxy-6-(methylsulfonyl)pyridin-2-yl)amino)-5-(1-methyl-1H-pyrazol-4-yl)pyridin-2-yl)acetamide]		>239	
0.037	16.8	> 10		CC(=O)Nc1cc(Nc2cc(OC(C)C)cc(S(C)(=O)=O)n2)c(-n2cccn2)cn1 [Example A12, N-(4-((4-isopropoxy-6-(methylsulfonyl)pyridin-2-yl)amino)-5-(1H-pyrazol-1-yl)pyridin-2-yl)acetamide]		>595	
0.022	0.969	> 10		CC(=O)Nc1cc(Nc2cc(OC(C)C)cc(S(C)(=O)=O)n2)c(-c2ccn(CCO)n2)cn1 [Example A14, N-(5-(1-(2-hydroxyethyl)-1H-pyrazol-3-yl)-4-((4-isopropoxy-6-(methylsulfonyl)pyridin-2-yl)amino)pyridin-2-yl)acetamide]		>10319	
0.04	0.687	3.46		COCCn1ccc(-c2cnc(NC(C)=O)cc2Nc2cc(C)cc(S(C)(=O)=O)n2)n1 [Example A15, N-(5-(1-(2-methoxyethyl)-1H-pyrazol-3-yl)-4-((4-methyl-6-(methylsulfonyl)pyridin-2-yl)amino)pyridin-2-yl)acetamide]		5039	
0.021	0.667	> 10		CC(=O)Nc1cc(Nc2cc(OC(C)C)cc(S(C)(=O)=O)n2)c(-c2cccc(C#N)n2)cn1 [Example A16, N-(6-cyano-4′-((4-isopropoxy-6-(methylsulfonyl)pyridin-2-yl)amino)-[2,3′-bipyridin]-6′-yl)acetamide]		>14992	
0.028	1.64	> 10		CC(=O)Nc1cc(Nc2cc(OC(C)C)cc(S(C)(=O)=O)n2)c(-c2ccc(C#N)cn2)cn1 [Example A17, N-(5-cyano-4′-((4-isopropoxy-6-(methylsulfonyl)pyridin-2-yl)amino)-[2,3′-bipyridin]-6′-yl)acetamide]		>6097	
0.034	1.53	> 10		CC(=O)Nc1cc(Nc2cc(OC(C)C)cc(S(C)(=O)=O)n2)c(-c2ccn(C3CCC3)n2)cn1 [Example A19, N-(5-(1-cyclobutyl-1H-pyrazol-3-yl)-4-((4-isopropoxy-6-(methylsulfonyl)pyridin-2-yl)amino)pyridin-2-yl)acetamide]		>6535	
0.03	1.12	2.38		CC(=O)Nc1cc(Nc2cc(C)cc(S(C)(=O)=O)n2)c(-c2ccc(C(C)(C)N)cn2)cn1 [Example A20, N-(5-(2-aminopropan-2-yl)-4′-((4-methyl-6-(methylsulfonyl)pyridin-2-yl)amino)-[2,3′-bipyridin]-6′-yl)acetamide]		2124	
0.027	1.85	> 10		CC(=O)Nc1cc(Nc2cccc(S(C)(=O)=O)n2)c(-c2cccnn2)cn1 [Example A24, N-(4-((6-(methylsulfonyl)pyridin-2-yl)amino)-5-(pyridazin-3-yl)pyridin-2-yl)acetamide]		>5405	
0.027	0.596	> 10		COc1ccc(-c2cnc(NC(C)=O)cc2Nc2cc(OCC3CC3)cc(S(C)(=O)=O)n2)nn1 [Example A25, N-(4-((4-(cyclopropylmethoxy)-6-(methylsulfonyl)pyridin-2-yl)amino)-5-(6-methoxypyridazin-3-yl)pyridin-2-yl)acetamide]		>16778	
0.032	0.405	> 10		COc1ccc(-c2cnc(NC(C)=O)cc2Nc2cc(OC(C)C)cc(S(C)(=O)=O)n2)nn1 [Example A26, N-(4-((4-isopropoxy-6-(methylsulfonyl)pyridin-2-yl)amino)-5-(6-methoxypyridazin-3-yl)pyridin-2-yl)acetamide]		>24691	
0.032				CC(=O)Nc1cc(Nc2cc(C3(C#N)CC3)cc(S(C)(=O)=O)n2)c(-c2ccc3c(n2)OCC(C)(C)O3)cn1 [Example Q120, N-(4-((4-(1-cyanocyclopropyl)-6-(methylsulfonyl)pyridin-2-yl)amino)-5-(2,2-dimethyl-2,3-dihydro-[1,4]dioxino[2,3-b]pyridin-6-yl)pyridin-2-yl)acetamide]			
				Cc1cc(C)cc(Nc2cc(NCCNC(=O)CCOCCOCCOCCOCCOCCOCCNC(=O)CCCC[C@@H]3SC[C@@H]4NC(=O)N[C@@H]43)c3ncc(C(N)=O)n3n2)c1 [Probe 1, 6-((3,5-dimethylphenyl)amino)-8-((4,26-dioxo-30-((3aS,4S,6aR)-2-oxohexahydro-1H-thieno[3,4-d]imidazol-4-yl)-7,10,13,16,19,22-hexaoxa-3,25-diazatriacontyl)amino)imidazo[1,2-b]pyridazine-3-carboxamide, reference compound]			10
